In patent US4343790A, “Controlled release acrylic polymer coated granular pesticidal compositions with attendant reduced dermal toxicity” (priority 1980, dated 1982) one finds LD50 data, which are given here for 1 compound.

This data set is described as follows: dermal toxicity of granular formulations (dermal LD50), male albino rabbits. The note with it: rabbit, in vivo, topical or ocular, Table I, 24 h cuff, 14 days observation, O,O-diethyl S-{[(1,1-dimethylethyl)thio]methyl}phosphorodithioate. From the text:
General method for the evaluation of dermal toxicity of the formulations of the present invention using male albino rabbits as the test animals
a. Five male albino rabbits weighing approximately 2.2 to 3.5 kilogram are selected for each dosage level. The hair is shaved from the entire trunk.
b. Saran tubing or "Vinylite" film VU1900, 30.5 cm (12") wide, 0.04 millimeter in thickness and long enough to fit around the rabbit.
c. One felt cloth bandage measuring approximately 22.9×45.7 cm (9"×18").
d. Four pieces of 3.8 cm (1.5") adhesive tape approximately 35.6 cm (14") long.
a. The granular material is placed in the center of the plastic film and is moistened with water.
b. The rabbits underside is moistened with water and the animals are placed belly down on the material.
c. The plastic is then brought up and around the animal and secured at each end with strips of adhesive tape. The felt cloth is then placed under the belly and brought up around the animal and secured to the body with the remaining two strips of adhesive tape.
Twenty-four hours after dosing, the "cuff" is removed and any remaining material is brushed away. If the test material cannot be removed, the animal is fitted with a fiber collar which prevents the animal from licking the treatment area. The animals are observed for 14 days, post dosing, noting signs of toxicity, skin irritation and mortality. […]

`CCOP(=S)(OCC)SCSC(C)(C)C` [O,O-diethyl S-{[(1,1-dimethylethyl)thio]methyl}phosphorodithioate]: the LD50 at 336 h was 1 to 2 mg/kg.
